Measured values taken from US20100160335A1, “PYRIDAZINONE DERIVATIVE AND PDE INHIBITOR CONTAINING THE SAME AS ACTIVE INGREDIENT” (KYORIN PHARMACEUTICAL CO., LTD., priority 2007, published 2010).
Read-outs that look alike come from different tables or passages of the source.

Assays:
[1] = molecular target: T1, PDE4Bcat (Homo sapiens, UniProt Q07343); assay: Phosphodiesterase inhibitory activity, PDE4 ([3H]cAMP, recombinant enzyme); format: biochemical; details: 30° C., 20 minutes, read-out: IC50(μmol/L) PDE4
T1 construct: made in house; host or cells: Sf9 insect cells (baculovirus, Bac-to-Bac / Gateway)
T1 sequence (Q07343 330-659 limits assumed): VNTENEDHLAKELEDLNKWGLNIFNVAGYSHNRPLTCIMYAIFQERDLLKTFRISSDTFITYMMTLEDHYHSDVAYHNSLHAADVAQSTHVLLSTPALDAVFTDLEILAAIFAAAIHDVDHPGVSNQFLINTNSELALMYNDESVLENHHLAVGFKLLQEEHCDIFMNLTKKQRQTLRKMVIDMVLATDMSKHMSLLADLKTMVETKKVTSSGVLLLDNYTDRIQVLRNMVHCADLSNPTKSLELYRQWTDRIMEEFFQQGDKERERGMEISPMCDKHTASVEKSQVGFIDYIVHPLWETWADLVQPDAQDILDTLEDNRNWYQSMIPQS

[2] = molecular target: T2, PDE3A catalytic domain (PDE3Acat) (Homo sapiens, UniProt Q14432); assay: Phosphodiesterase inhibitory activity, PDE3 ([3H]cAMP, recombinant enzyme); format: biochemical; details: 30° C., 20 minutes, read-out: IC50(μmol/L) PDE3
T2 construct: made in house; host or cells: Sf9 insect cells (baculovirus, Bac-to-Bac / Gateway)
T2 sequence (Q14432 674-1093 limits assumed): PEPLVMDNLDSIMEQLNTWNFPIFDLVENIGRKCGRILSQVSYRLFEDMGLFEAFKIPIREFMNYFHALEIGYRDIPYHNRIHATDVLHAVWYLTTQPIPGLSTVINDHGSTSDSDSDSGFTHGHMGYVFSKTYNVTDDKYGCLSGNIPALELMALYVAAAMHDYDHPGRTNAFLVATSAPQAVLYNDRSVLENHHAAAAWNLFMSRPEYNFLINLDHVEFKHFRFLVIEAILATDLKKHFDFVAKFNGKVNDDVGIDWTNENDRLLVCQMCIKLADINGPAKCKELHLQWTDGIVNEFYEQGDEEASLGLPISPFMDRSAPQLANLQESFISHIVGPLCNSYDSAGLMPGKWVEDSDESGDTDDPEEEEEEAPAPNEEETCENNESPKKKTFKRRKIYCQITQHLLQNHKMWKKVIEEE

[3] = test system: LPS acute inflammation model in rats; assay: LPS acute inflammation model in rats (total leukocytes in BALF); format: in vivo; details: BALF 3 hours after LPS; for inhibition in vivo at 1 mg/kg: Rattus norvegicus, Leukocyte, po, 3 h, read-out: Inhibition rate (total number of leukocytes in BALF); for Inhibition rate (total number of leukocytes in BALF): rat
Protocol: 1 mg/kg of the compound was orally administered to rat one hour before inhalation of a lipopolysaccharide from E. coli serotype 055:B5 (LPS), and the rat was made to inhale 50 mL of the LPS solution nebulized using a nebulizer for 30 minutes. Then, 3 hours after the LPS inhalation, the rat was euthanized with 20% urethane (5 ml/rat, i.p.). 5 ml of physiological saline for bronchoalveolar lavage was injected into the bronchial tubes and alveoli through the airway, and the bronchial tubes and alveoli were washed three times using a 5 mL syringe. This operation was repeated twice, and the solution was collected as bronchoalveolar lavage fluid (BALF). The collected BALF was centrifuged at 1200 rpm and 4° C. for 10 minutes (Hirtachi; himac CR 5 DL). The pellet was re-suspended in 10 mL of a 0.1% bovine serum albumin-physiological saline, and an equivalent amount of Turk's solution was added thereto to stain leukocytes. The total number of leukocytes was counted under a microscope to calculate the inhibition rate. Further, the indications were as follows: inhibition rate≧90% (++) and 90%>inhibition rate≧50% (+). [ ] means the results of the drug administration after fasting overnight.

[4] = test system: histamine-induced bronchoconstriction in guinea pigs; assay: Histamine-induced bronchoconstriction reaction in guinea pigs; format: in vivo; details: Cavia porcellus, iv, 0.5 min, guinea pig, measured 30 seconds after administration, read-out: Inhibition rate (histamine-induced bronchoconstriction); for inhibition in vivo at 0.3 mg/kg: compound 0.3 mg/kg, i.v.; for inhibition in vivo at 0.1 mg/kg: compound 0.1 mg/kg, i.v. (values in [ ])
Protocol: Guinea pigs were anesthetized with pentobarbital (30 mg/kg, i.p.). A cannula for intravenous administration was inserted into the left external jugular vein, a cannula for collecting blood and measuring blood pressure was inserted into the right internal carotid artery, and a tracheal cannula was inserted into the trachea. The guinea pigs were maintained on artificial respiration under the conditions of 60 times/min and 10 mL/kg/stroke. The airflow from the side branch of the tracheal cannula was measured by a bronchospasm transducer (Ugo-Basile) and recorded on a computer via Power Lab (ADInstruments Japan). The guinea pigs were immobilized with gallamine (10 mg/kg, i.v.), and histamine (12.5 μg/kg, i.v.) was administered at 10-minute intervals. After the histamine-induced bronchoconstriction became stable, the compound (0.3 mg/kg, i.v.) was administered. The histamine-induced bronchoconstriction reaction was measured 30 seconds after the compound administration to examine the bronchoconstriction inhibitory activity of the compound. The bronchoconstriction was recorded as the airflow value, and the results were represented by the ratio of the maximum value of the histamine- induced airflow 30 seconds after the administration to the maximum value of the airflow before the administration. Also, the test compounds dissolved in DMSO were used. Further, the indications were as follows: inhibition rate≧90% (+++), 90%>inhibition rate≧80% (++), and 80%>inhibition rate≧70% (+). [ ] means the results in the case of 0.1 mg/kg, i.v.

[5] = 1 mg/kg orally one hour before LPS inhalation
[6] = 1 mg/kg orally after fasting overnight (values in [ ]), one hour before LPS inhalation, 1 mg/kg
[7] = 1 mg/kg orally after fasting overnight (values in [ ]), one hour before LPS inhalation

| Compound | IC50 [1] | IC50 [2] | inhibition in vivo at 1 mg/kg [3, 5] | inhibition in vivo at 0.3 mg/kg [4] | Inhibition rate (total number of leukocytes in BALF) [3, 5] | Inhibition rate (total number of leukocytes in BALF) [3, 6] | inhibition in vivo at 1 mg/kg [3, 7] | inhibition in vivo at 0.1 mg/kg [4] |
| --- | --- | --- | --- | --- | --- | --- | --- | --- |
| COc1ccc(-c2ccc(=O)n(CCCCOc3ccc(C4=NNC(=O)CC4)c(F)c3F)n2)c2ccc(C)nc12 [Example 271, 2-[4-[2,3-Difluoro-4-(6-oxo-1,4,5,6-tetrahydropyridazin-3-yl)phenoxy]butyl]-6-(8-methoxy-2-methylquinolin-5-yl)-2H-pyridazin-3-one] | < 0.1 µmol/L | < 0.1 µmol/L |  | ≥ 90% |  |  | 50 to 90% |  |
| CCc1ccc2c(-c3ccc(=O)n(CCCCOc4ccc(C5=NNC(=O)CC5)c(F)c4F)n3)ccc(OC)c2n1 [Example 283, 6-(2-Ethyl-8-methoxyquinolin-5-yl)-2-[4-[2,3-difluoro-4-(6-oxo-1,4,5,6-tetrahydropyridazin-3-yl)phenoxy]butyl]-2H-pyridazin-3-one] | 0.1 to 1 µmol/L | < 0.1 µmol/L |  |  |  |  | ≥ 90% |  |
| CCc1ccc2c(-c3ccc(=O)n(CCCCOc4ccc(C5=NNC(=O)CC5C)c(F)c4F)n3)ccc(OC)c2n1 (stereo not drawn) [Example 289, 6-(2-Ethyl-8-methoxyquinolin-5-yl)-2-[4-[2,3-difluoro-4-(4-methyl-6-oxo-1,4,5,6-tetrahydropyridazin-3-yl)phenoxy]butyl]-2H-pyridazin-3-one] | < 0.1 µmol/L | < 0.1 µmol/L | 50 to 90% | ≥ 90% |  |  |  |  |
| CCc1ccc2c(C3=NN(CCCCOc4ccc(C5=NNC(=O)CC5)c(F)c4F)C(=O)CC3C)ccc(OC)c2n1 (stereo not drawn) [Example 299, 6-(2-Ethyl-8-methoxyquinolin-5-yl)-5-methyl-2-[4-[2,3-difluoro-4-(6-oxo-1,4,5,6-tetrahydropyridazin-3-yl)phenoxy]butyl]-4,5-dihydro-2H-pyridazin-3-one] | < 0.1 µmol/L | < 0.1 µmol/L |  |  |  |  | 50 to 90% | ≥ 90% |
| CCc1ccc2c(C3=NN(CCCCOc4ccc(C5=NNC(=O)CC5C)cc4)C(=O)CC3C)ccc(OC)c2n1 (stereo not drawn) [Example 312, 6-(2-Ethyl-8-methoxyquinolin-5-yl)-5-methyl-2-[4-[4-(4-methyl-6-oxo-1,4,5,6-tetrahydropyridazin-3-yl)phenoxy]butyl]-4,5-dihydro-2H-pyridazin-3-one] | < 0.1 µmol/L | 0.1 to 1 µmol/L | 50 to 90% |  |  |  |  | 70 to 80% |

Further lines, with some results ahead:

| IC50 [1] | IC50 [2] | Compound | inhibition in vivo at 1 mg/kg [3, 5] | inhibition in vivo at 0.3 mg/kg [4] | Inhibition rate (total number of leukocytes in BALF) [3, 5] | Inhibition rate (total number of leukocytes in BALF) [3, 6] | inhibition in vivo at 1 mg/kg [3, 7] | inhibition in vivo at 0.1 mg/kg [4] |
| --- | --- | --- | --- | --- | --- | --- | --- | --- |
| < 0.1 µmol/L | 1 to 10 µmol/L | CCc1ccc2c(C3=NN(CCCCOc4ccc(C5=NNC(=O)CC5C)cc4)C(=O)CC3C)ccc(OC)c2n1 (single isomer, unassigned) [Example 339, 6-(2-Ethyl-8-methoxyquinolin-5-yl)-5-methyl-2-[4-[4-(4-methyl-6-oxo-1,4,5,6-tetrahydropyridazin-3-yl)phenoxy]butyl]-4,5-dihydro-2H-pyridazin-3-one] | 50 to 90% |  |  |  |  |  |
| < 0.1 µmol/L | < 0.1 µmol/L | CCc1ccc2c(C3=NN(CCCCOc4ccc(C5=NNC(=O)CC5C)cc4)C(=O)CC3C)ccc(OC)c2n1 (single isomer, unassigned) [Example 340, 6-(2-Ethyl-8-methoxyquinolin-5-yl)-5-methyl-2-[4-[4-(4-methyl-6-oxo-1,4,5,6-tetrahydropyridazin-3-yl)phenoxy]butyl]-4,5-dihydro-2H-pyridazin-3-one] |  | ≥ 90% | + (90%>inhibition rate≧50% (+)) |  |  |  |
| < 0.1 µmol/L | < 0.1 µmol/L | CCc1ccc2c(-c3ccc(=O)n(CCCCOc4ccc(C5=NNC(=O)CC5C)c(F)c4F)n3)ccc(OC)c2n1 (single isomer, unassigned; (+)) [Example 322, (+)-6-(2-ethyl-8-methoxyquinolin-5-yl)-2-[4-[2,3-difluoro-4-(4-methyl-6-oxo-1,4,5,6-tetrahydropyridazin-3-yl)phenoxy]butyl]-2H-pyridazin-3-one] |  |  |  | [+] (90%>inhibition rate≧50% (+)) |  |  |
| < 0.1 µmol/L | < 0.1 µmol/L | CCc1ccc2c(-c3ccc(=O)n(CCCCOc4ccc(C5=NNC(=O)CC5C)c(F)c4F)n3)ccc(OC)c2n1 (single isomer, unassigned; (-)) [Example 323, (−)-6-(2-ethyl-8-methoxyquinolin-5-yl)-2-[4-[2,3-difluoro-4-(4-methyl-6-oxo-1,4,5,6-tetrahydropyridazin-3-yl)phenoxy]butyl]-2H-pyridazin-3-one] |  | 70 to 80% |  | [++] (inhibition rate≧90% (++)) |  |  |
| < 0.1 µmol/L | < 0.1 µmol/L | COc1ccc(C2=NN(CCCCOc3ccc(C4=NNC(=O)CC4C)cc3)C(=O)CC2C)c2[nH]c(C(F)(F)F)nc12 (stereo not drawn) [Example 314, 6-(4-Methoxy-2-trifluoromethyl-1H-benzimidazol-7-yl)-5-methyl-2-[4-[4-(4-methyl-6-oxo-1,4,5,6-tetrahydropyridazin-3-yl)phenoxy]butyl]-4,5-dihydro-2H-pyridazin-3-one] | 50 to 90% | 80 to 90% |  |  |  |  |
| 0.1 to 1 µmol/L | < 0.1 µmol/L | COc1ccc(-c2ccc(=O)n(CCCCOc3ccc(C4=NNC(=O)CC4C)c(F)c3F)n2)c2cccnc12 (stereo not drawn) [Example 319, 2-[4-[2,3-Difluoro-4-(4-methyl-6-oxo-1,4,5,6-tetrahydropyridazin-3-yl)phenoxy]butyl]-6-(8-methoxyquinolin-5-yl)-2H-pyridazin-3-one] |  |  |  |  | 50 to 90% | ≥ 90% |
| < 0.1 µmol/L | < 0.1 µmol/L | COc1ccc(-c2ccc(=O)n(CCCCOc3ccc(C4=NNC(=O)CC4)c(F)c3F)n2)c2cccnc12 [Example 320, 2-[4-[2,3-Difluoro-4-(6-oxo-1,4,5,6-tetrahydropyridazin-3-yl)phenoxy]butyl]-6-(8-methoxyquinolin-5-yl)-2H-pyridazin-3-one] |  | ≥ 90% |  |  | 50 to 90% |  |
